Experimental data: patent publication US20080139536A1, “Benzodiazepines for Treating or Preventing Rsv Infection” (Novartis Pharmaceuticals Corporation, priority 2004, published 2008)

Tested on: RSV (RSS strain)
Assay: RSV ELISA antigen reduction assay in Hep-2 cells
Type: cell-based, Respiratory Syncytial Virus
Conditions: RSV-infected Hep-2 cells, 3 day assay, ELISA OD 490 nm, 7-point dilution 50 μM-0.78 μM
Procedure: This was quantified by optical density (OD) measurement.
This assay was set up using all 96 wells of flat-bottomed 96-well plates. The outer wells were not subjected to any greater amount of evaporation than the inner wells during the 3 day assay period. (i.e. No “edge effect” seen).
Plates were set up one day before addition of virus and compounds. The assay then ran for 3 days with ELISA development taking place on the 4th day.
All 96 wells of a microtitre plate were seeded at a density of 4×10^3 Hep-2 cells/well in 100 μl/well of Growth Medium (GM) consisting of Dulbecco's MEM (DMEM) with Glutamax-1, Sodium Pyruvate, 1000 mg/l glucose and pyridoxine (Invitrogen, catalogue number 21885-025) and supplemented with 10% FBS. (See Plate 1).
A frozen vial of RSV (RSS strain provided by Virogen Ltd) stock solution was removed from the −80 freezer or liquid nitrogen store and diluted to a known Multiplicity of Infection (m.o.i) in Growth Medium.
The m.o.i. was calculated by prior titration of the virus stock (by the ELISA assay method) as the virus input required to achieve a window of at least 0.8 OD units between infected and uninfected control wells.
50 μl of diluted virus was added to infected, “virus+”, wells by multichannel pipette; 50 μl of Growth Medium was added to uninfected, cell control wells (CC) by multichannel pipette. (See Plate 2)
Plates were incubated at 37° C. for 1 hr to allow virus adsorption.
Compounds were made up at 4× strength in GM containing 2% DMSO (a final DMSO concentration in the assay of 0.5%).
Six compounds were tested on each assay plate as illustrated below. (See Plate 3). Compounds were tested in duplicate wells across a 7-point dilution series (from 50 μM-0.78 μM): in the presence of virus.
Virus infected, untreated wells served as the virus control (VC); Uninfected, untreated wells serve as the cell control (CC). The difference in absorbance between CC and VC wells constitutes the assay window.
200 μl of GM containing 2% DMSO was added to all wells except the ‘50 μM’ or first column, to which 392 μl of GM was added. 8 μl of each test compound was cherry-picked from a thawed Arrow screening plate and transferred to the appropriate well in the ‘50 μM’ column. Since the compound stock was at 10 mM in 100% DMSO, this will maintain the DMSO level at 2% at the top compound concentration.
Using a multichannel pipette, 200 μl was transferred from the 50 μM column to the 25 μM column, then to the 12.5 μM column and so on across the dilution plate creating a serial doubling dilution. Compounds were mixed upon transfer and tips changed between transfers, ensuring also that no compound was transferred to the last column of compound-free wells (0 μM).
The dilution plate was turned lengthways and 50 μl of compound easily transferred by multichannel pipette from the dilution plate to the assay plate, column by column. There was therefore an excess of 100 μl remaining in the dilution plate.
Plates were incubated at 37° C., 5% CO2 for 3 days.
Media was tapped out from wells directly into Virkon (1% solution in water) and plates were washed by immersing in a plastic box containing PBS. 50 μl/well of 75%/25% vol/vol acetone/methanol fixative was added by multichannel pipette and left for 3 mins.
Some 200 μl of blocking solution (2% Marvel in PBS containing 0.05% Tween) was added per well by multichannel pipette. Plates were incubated at 37° C. in a shaking incubator for 60 mins.
RSV mouse monoclonal antibody NCL-RSV3 (Novocastra) was diluted 1/400 in PBS/2% Marvel/0.05% Tween and 50 μl was added per well. Plates were incubated at 37° C. in a shaking incubator for 90 mins.
DAKo rabbit anti-mouse HRP conjugate (DAKO catalogue number P0260) was diluted 1/1000 in PBS/2% Marvel/0.05% Tween and 50 μl was added per well. Plates were incubated at 37° C. in a shaking incubator for 60 mins.
Substrate (SigmaFast OPD) was prepared in advance by dissolving 1 urea tablet in 20 mL water. […]

SMILES	IC50 [µM]
O=C(N[C@H]1N=C(c2ccccc2)c2ccccc2NC1=O)c1ccccc1N1CCS(=O)(=O)CC1 [Example 3]	5 to 10
O=C(N[C@H]1N=C(c2ccccc2)c2ccccc2NC1=O)c1ccc(F)cc1N1CCOCC1 [Example 13, (S)-4-Fluoro-2-morpholino-4-yl-N-(2-oxo-5-phenyl-2,3-dihydro-1H-benzo[e][1,4]diazepin-3-yl)-benzamide]	5 to 10
O=C(N[C@H]1N=C(c2ccccc2)c2ccccc2NC1=O)c1c(Cl)cccc1N1CCS(=O)(=O)CC1 [Example 26, (S)-2-Chloro-6-(1,1-dioxo-1,6-thiomorpholin-4-yl)-N-(2-oxo-5-phenyl-2,3-dihydro-1H-benzo[e][1,4]diazepin-3-yl)-benzamide]	< 5

Same assay, conditions: human respiratory syncytial virus, 72 h; RSV-infected Hep-2 cells, 3 day assay, ELISA OD 490 nm, 7-point dilution 50 μM-0.78 μM

SMILES	IC50 [µM]
CN1CCN(c2ccc(C(=O)NC3N=C(c4ccccc4)c4ccccc4NC3=O)cn2)CC1 (racemic) [Example 1, 6-(4-Methyl-piperazin-1-yl)-N-(2-oxo-5-phenyl-2,3-dihydro-1H-benzo[e][1,4]diazepin-3-yl)-nicotinamide]	5 to 10
O=C(NC1N=C(c2ccccc2)c2ccccc2NC1=O)c1ccc(N2CCCCC2)nc1 (racemic) [Example 2, 3,4,5,6-Tetrahydro-2H-[1,2′]bipyridinyl-5′-carboxylic acid (2-oxo-5-phenyl-2,3-dihydro-1H-benzo[e][1,4]diazepin-3-yl)-amide]	5 to 10
O=C(NC1N=C(c2ccccc2)c2ccccc2NC1=O)c1ccccc1N1CCOCC1 (racemic) [Example 50, 2-Morpholin-4-yl-N-(2-oxo-5-phenyl-2,3-dihydro-1H-benzo[e][1,4]diazepin-3-yl)-benzamide]	< 5
O=C(Nc1ccc(Oc2ccccc2)cc1)NC1N=C(c2ccccc2)c2ccccc2NC1=O (racemic) [Example 52, 1-(2-Oxo-5-phenyl-2,3-dihydro-1H-benzo[e][1,4]diazepin-3-yl)-3-(4-phenoxy-phenyl)-urea]	5 to 10
O=C(N[C@H]1N=C(c2ccccc2)c2ccccc2NC1=O)c1ccc(N2CCOCC2)cc1Cl [Example 4, (S)-2-Chloro-4-morpholin-4-yl-N-(2-oxo-5-phenyl-2,3-dihydro-1H-benzo[e][1,4]diazepin-3-yl)-benzamide]	< 5
O=C(N[C@H]1N=C(c2ccccc2)c2ccccc2NC1=O)c1cc(Cl)ccc1N1CCS(=O)(=O)CC1 [Example 6, (S)-5-Chloro-2-(1,1-dioxo-1λ6-thiomorpholin-4-yl)-N-(2-oxo-5-phenyl-2,3-dihydro-1H-benzo[e][1,4]diazepin-3-yl)-benzamide]	5 to 10
CN1CCN(Cc2ccc(C(=O)N[C@H]3N=C(c4ccccc4)c4ccccc4NC3=O)o2)CC1 [Example 8, (S)-5-(4-Methyl-piperazin-1-ylmethyl)-furan-2-carboxylic acid (2-oxo-5-phenyl-2,3-dihydro-1H-benzo[e][1,4]diazepin-3-yl)-amide]	< 5
O=C(N[C@H]1N=C(c2ccccc2)c2ccccc2NC1=O)c1ccc(CN2CCCCC2)o1 [Example 10, (S)-5-Piperidin-1-ylmethyl-furan-2-carboxylic acid (2-oxo-5-phenyl-2,3-dihydro-1H-benzo[e][1,4]diazepin-3-yl)-amide]	< 5
CN(C)Cc1ccc(C(=O)N[C@H]2N=C(c3ccccc3)c3ccccc3NC2=O)o1 [Example 11, (S)-5-Dimethylaminomethyl-furan-2-carboxylic acid (2-oxo-5-phenyl-2,3-dihydro-1H-benzo[e][1,4]diazepin-3-yl)-amide]	< 5
O=C(N[C@H]1N=C(c2ccccc2)c2ccccc2NC1=O)c1ccc(F)cc1N1CCCCC1 [Example 12, (S)-4-Fluoro-N-(2-oxo-5-phenyl-2,3-dihydro-1H-benzo[e][1,4]diazepin-3-yl)-2-piperidin-1-yl-benzamide]	5 to 10
O=C(N[C@H]1N=C(c2ccccc2)c2ccccc2NC1=O)c1ccc(C(F)(F)F)cc1N1CCCC1 [Example 16, (S)—N-(2-Oxo-5-phenyl-2,3-dihydro-1H-benzo[e][1,4]diazepin-3-yl)-2-pyrrolidin-1-yl-4-trifluoromethyl-benzamide]	5 to 10
O=C(N[C@H]1N=C(c2ccccc2)c2ccccc2NC1=O)c1ccc(C(F)(F)F)cc1N1CCCCC1 [Example 17, (S)—N-(2-Oxo-5-phenyl-2,3-dihydro-1H-benzo[e][1,4]diazepin-3-yl)-2-piperidin-1-yl-4-trifluoromethyl-benzamide]	5 to 10
O=C(N[C@H]1N=C(c2ccccc2)c2ccccc2NC1=O)c1ccc(C(F)(F)F)cc1N1CCOCC1 [Example 18, (S)-2-Morpholin-4-yl-N-(2-oxo-5-phenyl-2,3-dihydro-1H-benzo[e][1,4]diazepin-3-yl)-4-trifluoromethyl-benzamide]	< 5
O=C(N[C@H]1N=C(c2ccccc2)c2ccccc2NC1=O)c1cc(C(F)(F)F)ccc1N1CCCC1 [Example 19, (S)—N-(2-Oxo-5-phenyl-2,3-dihydro-1H-benzo[e][1,4]diazepin-3-yl)-2-pyrrolidin-1-yl-5-trifluoromethyl-benzamide]	< 5
O=C(N[C@H]1N=C(c2ccccc2)c2ccccc2NC1=O)c1cc(C(F)(F)F)ccc1N1CCOCC1 [Example 20, (S)-2-Morpholin-4-yl-N-(2-oxo-5-phenyl-2,3-dihydro-1H-benzo[e][1,4]diazepin-3-yl)-5-trifluoromethyl-benzamide]	> 10
Cc1cccc(C(=O)N[C@H]2N=C(c3ccccc3)c3ccccc3NC2=O)c1N1CCS(=O)(=O)CC1 [Example 23, (S)-2-(1,1-Dioxo-1λ6-thiomorpholin-4-yl)-3-methyl-N-(2-oxo-5-phenyl-2,3-dihydro-1H-benzo[e][1,4]diazepin-3-yl)-benzamide]	< 5
Cc1ccc(C(=O)N[C@H]2N=C(c3ccccc3)c3ccccc3NC2=O)c(N2CCS(=O)(=O)CC2)c1 [Example 24, (S)-2-(1,1-Dioxo-1λ6-thiomorpholin-4-yl)-4-methyl-N-(2-oxo-5-phenyl-2,3-dihydro-1H-benzo[e][1,4]diazepin-3-yl)-benzamide]	< 5
Cc1cccc(N2CCS(=O)(=O)CC2)c1C(=O)N[C@H]1N=C(c2ccccc2)c2ccccc2NC1=O [Example 25, (S)-2-(1,1-Dioxo-1λ6-thiomorpholin-4-yl)-6-methyl-N-(2-oxo-5-phenyl-2,3-dihydro-1H-benzo[e][1,4]diazepin-3-yl)-benzamide]	> 10
O=C1Nc2ccccc2C(c2ccccc2)=N[C@@H]1NC(=O)n1c(=O)n(C2CC2)c2ncccc21 [Example 27, (S)-3-Cyclopropyl-2-oxo-2,3-dihydro-imidazo[4,5-b]pyridine-1-carboxylic acid (2-oxo-5-phenyl-2,3-dihydro-1H-benzo[e][1,4]diazepin-3-yl)-amide]	> 10
CN1CCN(S(=O)(=O)c2cccc(C(=O)N[C@H]3N=C(c4ccccc4)c4ccccc4NC3=O)c2)CC1 [Example 28, (S)-3-(4-Methyl-piperazine-1-sulfonyl)-N-(2-oxo-5-phenyl-2,3-dihydro-1H-benzo[e][1,4]diazepin-3-yl)-benzamide]	> 10
CN1CCN(c2ccc(C(=O)N[C@H]3N=C(c4ccccc4)c4ccccc4NC3=O)cc2)CC1 [Example 29, (S)-4-(4-Methyl-piperazin-1-yl)-N-(2-oxo-5-phenyl-2,3-dihydro-1H-benzo[e][1,4]diazepin-3-yl)-benzamide]	< 5
